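Each compound was tested at five concentrations against cells in 96-well plates for 48 hours. GI50 = concentration required for 50% inhibition of growth. At the TGI there is no net growth.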
Legend:
Experiment in all cases: NCI tumour cell line growth inhibition, 48 h
HOP-92 NSCLC = system: HOP-92 NSCLC
U251 CNS = system: U251 CNS
CCRF-CEM leukemia = system: CCRF-CEM leukemia
OVCAR-4 ovarian = system: OVCAR-4 ovarian
SNB-19 CNS = system: SNB-19 CNS
UO-31 renal = system: UO-31 renal
SW-620 colon = system: SW-620 colon
MCF7 breast = system: MCF7 breast
UACC-257 melanoma = system: UACC-257 melanoma
HCT-15 colon = system: HCT-15 colon
COLO 205 colon = system: COLO 205 colon
UACC-62 melanoma = system: UACC-62 melanoma
NCI-H23 lung = system: NCI-H23 lung
OVCAR-5 ovarian = system: OVCAR-5 ovarian
ACHN renal = system: ACHN renal
SK-MEL-2 melanoma = system: SK-MEL-2 melanoma
T-47D breast = system: T-47D breast
KM12 colon = system: KM12 colon
MOLT-4 leukemia = system: MOLT-4 leukemia
HCC-2998 colon = system: HCC-2998 colon
SR leukemia = system: SR leukemia
TK-10 renal = system: TK-10 renal
MDA-MB-231 breast = system: MDA-MB-231 breast
HT29 colon = system: HT29 colon
MDA-MB-435 = system: MDA-MB-435
NCI-H522 lung = system: NCI-H522 lung
PC-3 prostate = system: PC-3 prostate
RPMI-8226 leukemia = system: RPMI-8226 leukemia
K-562 leukemia = system: K-562 leukemia
786-0 renal = system: 786-0 renal
RXF 393 renal = system: RXF 393 renal
SK-OV-3 ovarian = system: SK-OV-3 ovarian
NCI-H460 lung = system: NCI-H460 lung
LOX IMVI melanoma = system: LOX IMVI melanoma
SK-MEL-5 melanoma = system: SK-MEL-5 melanoma
HS 578T breast = system: HS 578T breast
EKVX NSCLC = system: EKVX NSCLC
SF-539 CNS = system: SF-539 CNS
SF-295 CNS = system: SF-295 CNS
OVCAR-3 ovarian = system: OVCAR-3 ovarian
BT-549 breast = system: BT-549 breast
HCT-116 colon = system: HCT-116 colon
IGROV1 ovarian = system: IGROV1 ovarian
CAKI-1 renal = system: CAKI-1 renal
SNB-75 CNS = system: SNB-75 CNS
SF-268 CNS = system: SF-268 CNS
A549 NSCLC = system: A549 NSCLC
HOP-62 NSCLC = system: HOP-62 NSCLC
A498 renal = system: A498 renal
SN12C renal = system: SN12C renal
MALME-3M melanoma = system: MALME-3M melanoma
NCI/ADR-RES ovarian = system: NCI/ADR-RES ovarian
NCI-H226 lung = system: NCI-H226 lung
M14 melanoma = system: M14 melanoma
SK-MEL-28 melanoma = system: SK-MEL-28 melanoma
DU-145 prostate = system: DU-145 prostate
HL-60(TB) leukemia = system: HL-60(TB) leukemia
MDA-MB-468 breast = system: MDA-MB-468 breast
OVCAR-8 ovarian = system: OVCAR-8 ovarian

O=C1CCC(N2Cc3c(C#CCCCNC(=O)c4ccc(NC(=O)[C@@H]5NC6(CCCCC6)[C@@]6(C(=O)Nc7cc(Cl)ccc76)[C@H]5c5cccc(Cl)c5F)cc4)cccc3C2=O)C(=O)N1 (stereo partly specified)
GI50 (HOP-92 NSCLC): 5.27 µM | TGI (HOP-92 NSCLC): > 100 µM | GI50 (U251 CNS): 9.5 µM | TGI (U251 CNS): > 100 µM | GI50 (CCRF-CEM leukemia): 11.6 µM | TGI (CCRF-CEM leukemia): > 100 µM | GI50 (OVCAR-4 ovarian): 7.28 µM | TGI (OVCAR-4 ovarian): 97.5 µM | GI50 (SNB-19 CNS): > 50.1 µM | TGI (SNB-19 CNS): > 100 µM | GI50 (UO-31 renal): 3.04 µM | TGI (UO-31 renal): > 100 µM | GI50 (SW-620 colon): > 100 µM | TGI (SW-620 colon): > 100 µM | TGI (MCF7 breast): > 49.8 µM | GI50 (UACC-257 melanoma): 9.03 µM | TGI (UACC-257 melanoma): > 100 µM | GI50 (HCT-15 colon): 7.72 µM | TGI (HCT-15 colon): > 100 µM | GI50 (COLO 205 colon): 72 µM | TGI (COLO 205 colon): > 100 µM | GI50 (UACC-62 melanoma): 0.445 µM | TGI (UACC-62 melanoma): > 100 µM | GI50 (NCI-H23 lung): > 88 µM | TGI (NCI-H23 lung): > 100 µM | GI50 (OVCAR-5 ovarian): > 53.2 µM | TGI (OVCAR-5 ovarian): > 100 µM | GI50 (ACHN renal): 3.86 µM | TGI (ACHN renal): > 100 µM | GI50 (SK-MEL-2 melanoma): > 100 µM | TGI (SK-MEL-2 melanoma): > 100 µM | GI50 (T-47D breast): 6.68 µM | TGI (T-47D breast): > 100 µM | GI50 (KM12 colon): 9.18 µM | TGI (KM12 colon): > 100 µM | TGI (MOLT-4 leukemia): 1.43 µM | GI50 (HCC-2998 colon): 9.57 µM | TGI (HCC-2998 colon): > 100 µM | GI50 (SR leukemia): 0.25 µM | TGI (SR leukemia): 3.11 µM | GI50 (TK-10 renal): > 75.9 µM | TGI (TK-10 renal): > 100 µM | GI50 (MDA-MB-231 breast): 15.4 µM | TGI (MDA-MB-231 breast): > 100 µM | GI50 (HT29 colon): 25.2 µM | TGI (HT29 colon): > 100 µM | GI50 (MDA-MB-435): 31.8 µM | TGI (MDA-MB-435): > 100 µM | GI50 (NCI-H522 lung): > 89.9 µM | TGI (NCI-H522 lung): > 100 µM | GI50 (PC-3 prostate): 7.52 µM | TGI (PC-3 prostate): > 100 µM | GI50 (RPMI-8226 leukemia): 4.16 µM | TGI (RPMI-8226 leukemia): > 100 µM | GI50 (K-562 leukemia): 65 µM | TGI (K-562 leukemia): > 100 µM | GI50 (786-0 renal): 35.2 µM | TGI (786-0 renal): > 100 µM | GI50 (RXF 393 renal): 5.81 µM | TGI (RXF 393 renal): > 79 µM | GI50 (SK-OV-3 ovarian): > 95.6 µM | TGI (SK-OV-3 ovarian): > 100 µM | GI50 (NCI-H460 lung): 2.09 µM | TGI (NCI-H460 lung): > 100 µM | GI50 (LOX IMVI melanoma): 0.953 µM | TGI (LOX IMVI melanoma): > 100 µM | GI50 (SK-MEL-5 melanoma): 2.33 µM | TGI (SK-MEL-5 melanoma): > 40.2 µM | GI50 (HS 578T breast): 4.3 µM | TGI (HS 578T breast): > 100 µM | GI50 (EKVX NSCLC): 8.32 µM | TGI (EKVX NSCLC): > 100 µM | GI50 (SF-539 CNS): 12.9 µM | TGI (SF-539 CNS): > 100 µM | GI50 (SF-295 CNS): 10.8 µM | TGI (SF-295 CNS): > 100 µM | GI50 (OVCAR-3 ovarian): 15.8 µM | TGI (OVCAR-3 ovarian): > 100 µM | GI50 (BT-549 breast): 13.1 µM | TGI (BT-549 breast): > 100 µM | GI50 (HCT-116 colon): 2.45 µM | TGI (HCT-116 colon): > 100 µM | GI50 (IGROV1 ovarian): 1.76 µM | TGI (IGROV1 ovarian): > 44 µM | GI50 (CAKI-1 renal): 1.2 µM | TGI (CAKI-1 renal): > 100 µM | GI50 (SNB-75 CNS): 2.5 µM | TGI (SNB-75 CNS): > 72.1 µM | GI50 (SF-268 CNS): 26 µM | TGI (SF-268 CNS): > 100 µM | GI50 (A549 NSCLC): 1.04 µM | TGI (A549 NSCLC): > 100 µM | GI50 (HOP-62 NSCLC): > 100 µM | TGI (HOP-62 NSCLC): > 100 µM | GI50 (A498 renal): 25.7 µM | TGI (A498 renal): > 100 µM | GI50 (SN12C renal): > 78.2 µM | TGI (SN12C renal): > 100 µM | GI50 (MALME-3M melanoma): 0.159 µM | TGI (MALME-3M melanoma): 20 µM | GI50 (NCI/ADR-RES ovarian): > 100 µM | TGI (NCI/ADR-RES ovarian): > 100 µM | GI50 (NCI-H226 lung): 0.2 µM | TGI (NCI-H226 lung): > 74.5 µM | GI50 (M14 melanoma): 75 µM | TGI (M14 melanoma): > 100 µM | GI50 (SK-MEL-28 melanoma): 96.8 µM | TGI (SK-MEL-28 melanoma): > 100 µM | GI50 (DU-145 prostate): > 100 µM | TGI (DU-145 prostate): > 100 µM | GI50 (HL-60(TB) leukemia): 6.77 µM | TGI (HL-60(TB) leukemia): > 100 µM | GI50 (MDA-MB-468 breast): 4.38 µM | TGI (MDA-MB-468 breast): > 35.7 µM | GI50 (OVCAR-8 ovarian): > 100 µM | TGI (OVCAR-8 ovarian): > 100 µM

From PubChem BioAssay (NCI)
